# Experiments:
# [1] = Evaluation of adhesiveness to the container (anti-6-His detection, absorbance at 450 nm); assay type: binding
# Description: Polypeptide 1, Polypeptide 2, and a human normal IgG antibody (manufactured by Wako Pure Chemical Industries, Ltd.) were dissolved in a PBS solution and 10% DMSO in PBS (10% DMSO PBS) each in a concentration of 10 μg/ml to give various solutions.
# To a 96-well plate obtained by injection molding of a hydride of a norbornene-based ring-opened polymer [Zeonor® 1060R, manufactured by Zeon Corporation] (hereinafter referred to as a “1060R plate”) and a 96-well plate made of polystyrene (product name “Falcon® (Falcon is a registered trademark in Japan, other countries, or both)”, manufactured by Corning Incorporated; hereinafter referred to as a “TCPS plate”), each of the polypeptide solutions prepared above was added in an amount of 50 μL/well (N=3) and the plates were allowed to stand at room temperature (25° C.) for 1 hour.
# After allowed to stand, the insides of the wells of the 1060R plate and the TCPS plate were washed three times with T-TBS (0.05 m Tris hydrochloric acid, 0.15 m sodium chloride, 0.05% Tween® 20; pH 7.6). […]
# For the wells of each plate, the absorbance at 450 nm was measured using a well plate reader apparatus (manufactured by CORONA ELECTRIC Co., Ltd.).
# [2] = system: CHO (Chinese Hamster Ovary) cells; test: CHO cell shape on polypeptide-coated 1060R plate; assay type: cell-based; details: microscope, 5 hours after the start of culture, serum-free medium, coating 10 μg/ml
# Description: Each of the solutions which this Polypeptide 3 and Polypeptide 2 obtained in Example 2 were dissolved in PBS in a concentration of 10 μg/ml respectively was filter-sterilized. To an EOG-sterilized 1060R plate, 50 μL per well of each of the resultant solution was added. The plates were allowed to stand at room temperature (25° C.) for 1 hour.
# After allowed to stand, each of the 1060R plates incubated with Polypeptide 3 and Polypeptide 2 obtained in Example 2 was washed three times with sterilized PBS to obtain a Polypeptide 3-coated 1060R plate and a Polypeptide 2-coated 1060R plate.
# To wells of the two plates thus obtained and a 1060R plate that was not coated with a polypeptide, CHO (Chinese Hamster Ovary) cells suspended in a serum-free medium (serum free medium ESF SFM Serum⋅Free Medium for Hybridoma, CHO & 293 Cells, manufactured by Expression Systems, LLC) were added and maintained the culture in a CO2 incubator at 37° C.
# [3] = Phage display peptide library search on norbornene-based polymer culture dish; assay type: binding; details: tertiary phage solutions; washes with PBS, Glycine HCl pH 2, Glycine NaOH pH 10, then PBS containing 10% DMSO
# Description: As a phage display peptide library, Ph.D.-C7C Phage Display Peptide Library Kit (manufactured by New England Biolabs Japan Inc.) was used.
# The phage solution was dissolved in a phosphate buffer (PBS; a mixed solution of 137 mmol/l NaCl, 8.1 mmol/l Na2HPO4, 2.68 mmol/l KCl, and 1.47 mmol/l KH2PO4, pH 7.4) to give a peptide library.
# Thereafter, the bottom of the culture dish was washed three times with PBS.
# Subsequently, it was washed once with 40 mM Glycine HCl Buffer (pH 2.2) adjusted to pH 2, and further, 40 mM Glycine NaOH (pH 10) adjusted to pH 10 was added dropwise to it.
# The dropped solution was collected, and the pH was immediately neutralized with a dilute hydrochloric acid (pH=7.0) to obtain a “phage solution washed with an alkali and collected”.
# Subsequently, a PBS containing 10% DMSO was added dropwise to the bottom of the culture dish, and the dropped solution was collected to obtain a “phage solution washed with DMSO and collected.” […]
# The gene sequences of the phages contained in the two phage solutions obtained by acquisition of the tertiary phage solutions were read to obtain corresponding amino acid sequences.
# [4] = Blocking effect against non-specific adsorption of antibody, 1060R plate; details: solution containing no protein, 0.05% or 0.2% in PBS, FIG. 8
# Description: (§1) The container on which the synthetic BNP antigen was immobilized was blocked in the same manner as in Example 5, using a phosphate buffered saline containing 10% blocking agent (manufactured by NACALAI TESQUE, INC., product name “Blocking One”) containing a widely used casein (“Blocking One having a final concentration of 10%”), a phosphate buffered saline containing 0.05% Tween® 20 (“Tween® 20 PBS having a final concentration of 0.05%”), and a phosphate buffered saline containing 0.2% Tween® 20 (“Tween® 20 PBS having a final concentration of 0.2%”) as blocking agents, and compared to the condition without the blocking treatment.
# (§2) As microwell plates, the 1060R plate (experimental example) and the PS plate (comparative example) were used. […]
# (§3) After the resultant was allowed to stand, the solution in the wells was removed, followed by washing three times with a phosphate buffered saline containing 0.05% Tween® 20. […] After adding 0.1 M sulfuric acid as a stop solution, the absorbance at 450 nm was measured with a light absorption plate reader.
# (§4) The value for each condition was determined using the relative value to the measured absorbance value of the well that was not subjected to blocking in the 1060R plate.
# [5] = Blocking effect against non-specific adsorption of antibody, PS plate; details: containing no protein, FIG. 8
# Description: as §1, §2, §3, §4
# [6] = Adsorption of antigen to multi-well plate, 1060R plate; assay type: binding; details: FIG. 6
# Description: (§5) The condition for adsorption of an antigen to a multi-well plate was examined. A comparison of adsorption of an antigen was made by using a 96-well plate obtained by injection molding of a hydride of a norbornene-based ring-opened polymer [Zeonor® 1060R, manufactured by Zeon Corporation] (hereinafter referred to as a “1060R plate”) and a 96-well plate made of polystyrene (product name “SUMILON® (SUMILON is a registered trademark in Japan, other countries, or both) ELISA Plate H”, manufactured by Sumitomo Bakelite Co., Ltd.; hereinafter referred to as a “PS plate”).
# (§6) A peptide in which the amino acid sequence of […](SEQ ID NO: 7) that has the property of specifically attaching to a norbornene-based polymer is bound to the N terminal of the amino acid sequence of Cys-Lys-Val-Leu-Arg-Arg-His (SEQ ID NO: 6) of the antibody recognition site of the human BNP (brain natriuretic peptide) (hereinafter referred to as a “synthetic BNP antigen”) was synthesized. […]
# (§7) Then, the synthetic BNP antigen immobilized in the plate was allowed to develop a color using a coloring reagent (manufactured by NACALAI TESQUE, INC., product name “ELISA POD Substrate TMB Solution”), and quenched with a dilute sulfuric acid, followed by measuring the absorbance at 450 nm by an absorbance plate reader.
# [7] = Adsorption of antigen to multi-well plate, PS plate; assay type: binding; details: FIG. 6
# Description: as §5, §6, §7
substance,measurement,setting,value
ACTVDSCLTCGGGGGHHHHHH [Polypeptide 2],absorbance at 450 nm of the 1060R plate compared with the TCPS plate,"[1]; 10 μg/ml polypeptide, 1 hour at room temperature, FIG. 2",higher than that of the TCPS plate
same,adhesiveness to a norbornene-based polymer,[1]; conclusion from FIG. 2,high adhesiveness
same,shape of CHO cells on coated 1060R plate,[2],rounded shapes
ACTVDSCLTCGGGGGRGDSPHHHHHH [Polypeptide 3],shape of CHO cells on coated 1060R plate,[2],shapes in which the cells were stretched
TVDNSLA [Thr-Val-Asp-Asn-Ser-Leu-Ala],adhesion/elution behaviour of the amino acid sequence on the norbornene-based polymer dish,[3],eluting at a high pH
TVDSCLT [Thr-Val-Asp-Ser-Cys-Leu-Thr],adhesion/elution behaviour of the amino acid sequence on the norbornene-based polymer dish,[3],continued to adhere even after washed with an alkali and was eluted with an organic solvent
polyoxyethylene sorbitan monolaurate [Tween® 20],blocking effect (relative absorbance at 450 nm),[4],a blocking effect was observed
same,blocking effect (relative absorbance at 450 nm),[5],a blocking effect was lower as compared to a blocking agent containing a protein
"synthetic BNP antigen: peptide in which SEQ ID NO: 7 (norbornene polymer-attaching sequence) is bound to the N terminal of SEQ ID NO: 6, antibody recognition site of human BNP (ACTVDSCLTCGGGGGSSSGLGCKVLRRH)",attachment of antigen to the plate (absorbance at 450 nm),[6],attached
same,attachment of antigen to the plate (absorbance at 450 nm),[7],not attached

# Reference: US11926679B2, “Oligopeptide search method, oligopeptide, modified peptide, and immunoassay method” (ZEON CORPORATION, priority 2016, dated 2024)
